Assay results taken from PubChem BioAssay AID330 (DTP/NCI, 2004).
Values joined by “and” are separate entries in the source; they are usually repeats but may differ in a detail not shown here. Identical values can stand only once. Inconclusive results and toxic doses are left out. The calls were made as follows: active = survival T/C of 150% or more; inactive = T/C below 125% in these data.

Test system: P388 leukemia ip, CD2F1 mice, survival T/C
Assay: NCI In Vivo Anticancer Drug Screen. Data for tumor model P388 Leukemia (intraperitoneal) in CD2F1 (CDF1) mice
Settings: endpoint: median survival time, higher = longer survival
Method in brief: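 Mice carrying the transplanted tumor received test compound or vehicle. Survival was recorded in each group, and the value is the treated-group measurement divided by that of the vehicle-treated control group.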

[1] = dose: 200.0 mg/kg/injection, schedule: Q01DX005 (ip), vehicle: saline with Tween-80
[2] = dose: 50.0 mg/kg/injection, schedule: Q01DX005 (ip), vehicle: saline with Tween-80
[3] = dose: 100.0 mg/kg/injection, schedule: Q01DX005 (ip), vehicle: saline with Tween-80
[4] = dose: 50.0 mg/kg/injection, schedule: Q01DX009 (ip), vehicle: Klucel (hydroxypropylcellulose) (HPC)
[5] = dose: 100.0 mg/kg/injection, schedule: Q01DX009 (ip), vehicle: Klucel (hydroxypropylcellulose) (HPC)
[6] = dose: 50.0 mg/kg/injection, schedule: Q01DX009 (ip), vehicle: saline with Tween-80
[7] = dose: 100.0 mg/kg/injection, schedule: Q04DX003 (ip), vehicle: saline with Tween-80
[8] = dose: 200.0 mg/kg/injection, schedule: Q04DX003 (ip), vehicle: saline with Tween-80
[9] = dose: 400.0 mg/kg/injection, schedule: Q04DX003 (ip), vehicle: saline with Tween-80
[10] = dose: 60.0 mg/kg/injection, schedule: Q01DX005 (ip), vehicle: saline
[11] = dose: 120.0 mg/kg/injection, schedule: Q01DX005 (ip), vehicle: saline
[12] = dose: 240.0 mg/kg/injection, schedule: Q01DX005 (ip), vehicle: saline
[13] = dose: 200.0 mg/kg/injection, schedule: Q01DX009 (ip), vehicle: Klucel (hydroxypropylcellulose) (HPC)
[14] = dose: 400.0 mg/kg/injection, schedule: Q04DX003 (ip), vehicle: saline
[15] = dose: 60.0 mg/kg/injection, schedule: Q01DX005 (ip), vehicle: Klucel (hydroxypropylcellulose) (HPC)
[16] = dose: 120.0 mg/kg/injection, schedule: Q01DX005 (ip), vehicle: Klucel (hydroxypropylcellulose) (HPC)

Measured: T/C

CC1CN(Cc2ccccc2O)CC(C)N1 (stereo unspecified)
inactive: dose: 6.25 mg/kg/injection, schedule: Q01DX009 (ip), vehicle: water 90 % of control | dose: 12.5 mg/kg/injection, schedule: Q01DX009 (ip), vehicle: water 93 % of control | dose: 25.0 mg/kg/injection, schedule: Q01DX009 (ip), vehicle: water 106 % of control | dose: 50.0 mg/kg/injection, schedule: Q01DX009 (ip), vehicle: water 91 % of control | dose: 100.0 mg/kg/injection, schedule: Q01DX009 (ip), vehicle: water 94 % of control

O=C(Nc1ccc2c(c1)Cc1ccccc1-2)c1cccc2ccccc12
inactive: dose: 0.75 mg/kg/injection, schedule: Q01DX005 (ip), vehicle: saline with Tween-80 96 % of control | dose: 1.5 mg/kg/injection, schedule: Q01DX005 (ip), vehicle: saline with Tween-80 96 % of control | dose: 3.0 mg/kg/injection, schedule: Q01DX005 (ip), vehicle: saline with Tween-80 89 % of control | [1] 90 % of control

CCCCNCC(=O)Nc1cc(NC(=O)CNCCCC)c(C)c(NC(=O)CNCCCC)c1
inactive: [2] 100 % of control | [3] 104 % of control | [1] 100 % of control

O=C1c2ccccc2CCC12OC2c1ccncc1 (stereo unspecified)
inactive: dose: 25.0 mg/kg/injection, schedule: Q01DX009 (ip), vehicle: Klucel (hydroxypropylcellulose) (HPC) 107 % of control | [4] 110 % of control | [5] 100 % of control

CN(CCO)c1n[nH]c(=O)c2ccccc12
inactive: [6] 109 % of control | dose: 100.0 mg/kg/injection, schedule: Q01DX009 (ip), vehicle: saline with Tween-80 101 % of control | dose: 200.0 mg/kg/injection, schedule: Q01DX009 (ip), vehicle: saline with Tween-80 101 % of control

CC(CC=O)CCCC(C)(C)O (stereo unspecified)
inactive: [7] 100 % of control | [8] 100 % of control | [9] 100 % of control

[O-][N+]1(CC[N+]2([O-])CCCCC2)CCCCC1
inactive: [10] 97 % of control | [11] 100 % of control | [12] 97 % of control

C#CC(=O)OC
inactive: dose: 25.0 mg/kg/injection, schedule: Q04DX002 (ip), vehicle: saline 102 % of control | dose: 50.0 mg/kg/injection, schedule: Q04DX002 (ip), vehicle: saline 98 % of control | dose: 100.0 mg/kg/injection, schedule: Q04DX002 (ip), vehicle: saline 106 % of control

CNC(=O)OCc1c(C)oc(-c2ccccc2)c1COC(=O)NC
inactive: dose: 12.5 mg/kg/injection, schedule: Q01DX009 (ip), vehicle: distilled water + Tween-80 93 % of control | dose: 25.0 mg/kg/injection, schedule: Q01DX009 (ip), vehicle: distilled water + Tween-80 90 % of control | dose: 50.0 mg/kg/injection, schedule: Q01DX009 (ip), vehicle: distilled water + Tween-80 100 % of control

Cc1cc2nc(CC(O)(C(F)(F)F)C(F)(F)F)oc2cc1C
inactive: [7] 95 % of control | [8] 95 % of control | [9] 100 % of control

C1CCC2[N-]CC3CCCCC3[N-]CC3CCCCC3[N-]CC3CCCCC3[N-]CC2C1.[Ni+2].[O-][Cl+3]([O-])([O-])O (stereo unspecified)
inactive: dose: 6.25 mg/kg/injection, schedule: Q01DX009 (ip), vehicle: saline 96 % of control

COc1cc(-c2nc(=S)[nH][nH]2)cc(OC)c1OC
inactive: dose: 100.0 mg/kg/injection, schedule: Q01DX001 (ip), vehicle: saline with Tween-80 89 % of control | dose: 200.0 mg/kg/injection, schedule: Q01DX001 (ip), vehicle: saline with Tween-80 89 % of control | dose: 400.0 mg/kg/injection, schedule: Q01DX001 (ip), vehicle: saline with Tween-80 96 % of control

COC(=O)C(CCc1ccc([N+](=O)[O-])cc1)C(C)=O (stereo unspecified)
inactive: [10] 102 % of control | [11] 97 % of control | [12] 95 % of control

Cc1cc(CC(C)O)n[nH]1 (stereo unspecified)
inactive: [4] 109 % of control | [5] 106 % of control | [13] 102 % of control

O=C(NO)C1CCCCC1O (stereo unspecified)
inactive: dose: 12.5 mg/kg/injection, schedule: Q04DX003 (ip), vehicle: saline 100 % of control | dose: 25.0 mg/kg/injection, schedule: Q04DX003 (ip), vehicle: saline 100 % of control | dose: 50.0 mg/kg/injection, schedule: Q04DX003 (ip), vehicle: saline 110 % of control | [14] 110 % of control

CCCCN(C(=O)c1ccccc1)c1nc2ccccc2n1C
inactive: dose: 100.0 mg/kg/injection, schedule: Q04DX003 (ip), vehicle: saline 95 % of control | dose: 200.0 mg/kg/injection, schedule: Q04DX003 (ip), vehicle: saline 98 % of control | [14] 99 % of control

O=S(=O)(N/N=C/c1cccc(Cl)c1)c1ccccc1
inactive: [15] 109 % of control | [16] 104 % of control | dose: 240.0 mg/kg/injection, schedule: Q01DX005 (ip), vehicle: Klucel (hydroxypropylcellulose) (HPC) 105 % of control

COC(=O)N1C2CCCCC2=NN(c2ccccc2)N1C(=O)OC (stereo unspecified)
inactive: dose: 25.0 mg/kg/injection, schedule: Q01DX005 (ip), vehicle: Klucel (hydroxypropylcellulose) (HPC) 100 % of control | dose: 50.0 mg/kg/injection, schedule: Q01DX005 (ip), vehicle: Klucel (hydroxypropylcellulose) (HPC) 98 % of control | dose: 100.0 mg/kg/injection, schedule: Q01DX005 (ip), vehicle: Klucel (hydroxypropylcellulose) (HPC) 93 % of control | dose: 200.0 mg/kg/injection, schedule: Q01DX005 (ip), vehicle: Klucel (hydroxypropylcellulose) (HPC) 91 % of control

S=C1NCCOc2ccccc21
inactive: [15] 100 % of control | [16] 100 % of control

CCOc1ccccc1/C=N\NC(=O)C(=O)N/N=C\c1ccccc1OCC
inactive: dose: 1.56 mg/kg/injection, schedule: Q01DX009 (ip), vehicle: Klucel (hydroxypropylcellulose) (HPC) 98 % of control | dose: 3.12 mg/kg/injection, schedule: Q01DX009 (ip), vehicle: Klucel (hydroxypropylcellulose) (HPC) 94 % of control | dose: 6.25 mg/kg/injection, schedule: Q01DX009 (ip), vehicle: Klucel (hydroxypropylcellulose) (HPC) 86 % of control and 91 % of control | [4] 90 % of control | [13] 97 % of control

O=C(c1ccc(Cl)cc1)c1cnc2nc(-c3ccccc3)c(-c3ccccc3)nn12
inactive: dose: 6.25 mg/kg/injection, schedule: Q01DX005 (ip), vehicle: saline with Tween-80 97 % of control | dose: 12.5 mg/kg/injection, schedule: Q01DX005 (ip), vehicle: saline with Tween-80 98 % of control | dose: 25.0 mg/kg/injection, schedule: Q01DX005 (ip), vehicle: saline with Tween-80 97 % of control | [2] 103 % of control | [3] 113 % of control | [1] 115 % of control

COc1cccc2c1C(=O)c1c(O)c3c(c(O)c1C2=O)C[C@@](O)(/C(C)=N/NC(=O)c1ccc(Cl)cc1)C[C@@H]3OC1CC(N)C(O)C(C)O1 (stereo partly specified)
inactive: dose: 0.12 mg/kg/injection, schedule: Q01DX009 (ip), vehicle: water 110 % of control | dose: 8.0 mg/kg/injection, schedule: Q01DX009 (ip), vehicle: water 109 % of control | dose: 20.0 mg/kg/injection, schedule: Q01DX001 (ip), vehicle: water 108 % of control
active: dose: 0.5 mg/kg/injection, schedule: Q01DX009 (ip), vehicle: water 155 % of control | dose: 1.0 mg/kg/injection, schedule: Q01DX009 (ip), vehicle: water 180 % of control | dose: 2.0 mg/kg/injection, schedule: Q01DX009 (ip), vehicle: water 161 % of control and 166 % of control | dose: 4.0 mg/kg/injection, schedule: Q01DX009 (ip), vehicle: water 211 % of control | dose: 5.0 mg/kg/injection, schedule: Q01DX001 (ip), vehicle: water 181 % of control | dose: 10.0 mg/kg/injection, schedule: Q01DX001 (ip), vehicle: water 192 % of control

CC(=O)NNC(=S)Nc1ccccc1
inactive: [2] 100 % of control | [3] 101 % of control | [1] 100 % of control

O=C(CC(=O)C(F)(F)F)c1cccs1
inactive: dose: 6.25 mg/kg/injection, schedule: Q01DX009 (ip), vehicle: saline with Tween-80 100 % of control | dose: 12.5 mg/kg/injection, schedule: Q01DX009 (ip), vehicle: saline with Tween-80 100 % of control and 104 % of control | dose: 25.0 mg/kg/injection, schedule: Q01DX009 (ip), vehicle: saline with Tween-80 103 % of control and 110 % of control | [6] 100 % of control and 111 % of control and 114 % of control
